We go through twelve compounds from patent US6583125B2 (priority 1992, dated 2003).

Read-outs that look alike come from different tables or passages of the source. *1 amine or outer side, *2 acyl side, *3 side chain or, on linkers, in order; H or OH if unused. Where a SMILES comes first, the peptide text is derived from it. Bridges are numbered along the chain shown (N, C = ends). Roman numbers before positions name the chains, in order. [ ]: non-standard residue; d: D form. Actinocin(9to1) = Cc1c2oc3c(C)ccc(C(=O)[*:1])c3nc-2c(C(=O)[*:2])c(N)c1=O; NMeV = CN[C@H](C(=O)O)C(C)C; Sar = CNCC(=O)O

For data set [1] the following is noted: rat, in vivo.
For data set [2] the following is noted: human, in vivo; cited from earlier work.
For data set [3] the following is noted: rat, in vivo. This is another data set of the same source.
Data set [4] relates to rats. As to conditions: rat, in vivo.
The subject of data set [5] is rats. As to conditions: rat, in vivo. The source holds these as a separate data set.
Data set [6] deals with rats. As to conditions: rat, in vivo. The source holds these as a separate data set.
The mark [7] stands for this setting: male, Charles Rivers CD (Sprague-Dawley).

Take `CO[C@@]12[C@H](COC(N)=O)C3=C(C(=O)C(C)=C(N)C3=O)N1C[C@@H]1N[C@@H]12` [mitomycin-c]: the rats died result in data set [1] (male) is recorded as “Five of 12”. The “loss of initial body weight” value in data set [1] is given as “about 25%”.

In the case of `CN(N=O)C(=O)N[C@@H](C=O)[C@@H](O)[C@H](O)[C@H](O)CO` [streptozocin], in data set [2], the “Frequency of Phlebitis” value was “Infrequent”.

In the case of `COc1cccc2c1C(=O)c1c(O)c3c(c(O)c1C2=O)C[C@@](O)(C(C)=O)C[C@@H]3O[C@H]1C[C@H](N)[C@H](O)[C@H](C)O1` [daunorubicin], in data set [2], the “Frequency of Phlebitis” value is recorded as “Frequent”.

As to `COc1cccc2c1C(=O)c1c(O)c3c(c(O)c1C2=O)C[C@@](O)(C(=O)CO)C[C@@H]3O[C@H]1C[C@H](N)[C@H](O)[C@H](C)O1` [Doxorubicin, 10-[(3-amino-2,3,6-tri-deoxy-α-L-lyxo-hexopyransoyl)oxy]-7,8,9,10-tetrahydro-6,8,-11-trihydroxy-8-(hydroxyacetyl)-1-methyoxy-5,12-naphthacenedione], in data set [3], the “effect on body weight” value is listed as “no adverse effect on body weight”. For the same compound, the “Frequency of Phlebitis” value in data set [2] was “Frequent”. Further, in the data set with rats [4] (setting [7]), the rats with lesions result is “all 8” and the “rats with necrotic lesions of the skin” value was “all 8”.

As for `COc1cc([C@@H]2c3cc4c(cc3[C@@H](O[C@@H]3O[C@@H]5CO[C@@H](c6cccs6)O[C@H]5[C@H](O)[C@H]3O)[C@H]3COC(=O)[C@H]23)OCO4)cc(OC)c1O` [Tenoposide], the “Frequency of Phlebitis” value in data set [2] is “Frequent”.

For the compound `Cc1c2oc3c(C)ccc(C(=O)N[C@@H]4C(=O)N[C@H](C(C)C)C(=O)N5CCC[C@H]5C(=O)N(C)CC(=O)N(C)[C@@H](C(C)C)C(=O)O[C@@H]4C)c3nc-2c(C(=O)N[C@@H]2C(=O)N[C@H](C(C)C)C(=O)N3CCC[C@H]3C(=O)N(C)CC(=O)N(C)[C@@H](C(C)C)C(=O)O[C@@H]2C)c(N)c1=O` [dactinomycin] (I: T[dV]P[Sar][NMeV] / II: T[dV]P[Sar][NMeV]; ester I:1-I:C, II:1-II:C; linker I:N-II:N via Actinocin(9to1)), the “Frequency of Phlebitis” value in data set [2] is “Frequent”.

For hydroxypropyl-β-cyclodextrin [HPCD], the lesions caused entry in the data set with rats [5] is on record as “no lesions”. Besides, the “effect on body weight” value in data set [3] is on record as “no effect on body weight”. Moreover, the lesion size with rats [6] turned out to be 3.5 mm. Moreover, in the data set with rats [4], the “diameter of the lesion in the one remaining animal” value is recorded as 0.3 cm and the “rats with no lesion at any sampling time” value is 7 of 8.

`CC(=O)[C@]1(O)Cc2c(O)c3c(c(O)c2[C@@H](O[C@H]2C[C@H](N)[C@H](O)[C@H](C)O2)C1)C(=O)c1ccccc1C3=O` [Idarubicin]: in data set [2], the “Frequency of Phlebitis” value was “Frequent”.

`CN(C)/N=N/c1[nH]cnc1C(N)=O` [dacarbazine]: in data set [2], the “Acute Local tissue Effects (infiltration)” value is “Pain, mild inflammation,” and the “Frequency of Phlebitis” value was “Frequent”.

Turning to `CC[C@]1(O)C[C@H]2CN(CCc3c([nH]c4ccccc34)[C@@](C(=O)OC)(c3cc4c(cc3OC)N(C=O)[C@H]3[C@@](O)(C(=O)OC)[C@H](OC(C)=O)[C@]5(CC)C=CCN6CC[C@]43[C@@H]65)C2)C1` [Vincristine, 22-Oxoyincaleukoblastine], the “Frequency of Phlebitis” value in data set [2] is reported as “Infrequent”.

For `CC(=O)O[C@H]1C(=O)[C@@]2(C)[C@H]([C@H](OC(=O)c3ccccc3)[C@]3(O)C[C@H](OC(=O)[C@H](O)[C@@H](NC(=O)c4ccccc4)c4ccccc4)C(C)=C1C3(C)C)[C@]1(OC(C)=O)CO[C@@H]1C[C@@H]2O` [Taxol CV, Taxol], in the data set with rats [5] (male, Charles Rivers CD), the rats with lesions result is “all 8”.

Regarding `CO[C@@H]1[C@H](O)C[C@@H](O[C@@H]2C[C@H](Oc3cc4cc5c(c(O)c4c(O)c3C)C(=O)[C@@H](O[C@H]3C[C@@H](O[C@H]4C[C@@H](O[C@H]6C[C@](C)(O)[C@@H](OC(C)=O)[C@H](C)O6)[C@H](O)[C@@H](C)O4)[C@H](O)[C@@H](C)O3)[C@H]([C@H](OC)C(=O)[C@@H](O)[C@@H](C)O)C5)O[C@H](C)[C@@H]2OC(C)=O)O[C@@H]1C` [Chromomycin A3], in data set [2], the “Acute Local tissue Effects (infiltration)” value is reported as “Sever tissue sloughing” and the “Frequency of Phlebitis” value is on record as “Frequent”.
